Experimental data as given in ChEMBL document CHEMBL1139310, “Lead identification to generate 3-cyanoquinoline inhibitors of insulin-like growth factor receptor (IGF-1R) for potential use in cancer treatment” (Bioorg Med Chem Lett, 2009).
In brackets after ≈: the same amount, converted by molar mass.

test system: not listed separately; assay: Aqueous solubility at pH 7.4; assay type: physicochemical

SMILES | solubility [µg/mL]
CCN1CCN(CCCOc2cc3ncc(C#N)c(Nc4ccc(Sc5nc(C)c(C)n5CC)c(Cl)c4)c3cc2OC)CC1 | 2000 (≈ 3.15 mM)

target: Insulin-like growth factor 1 receptor (Homo sapiens, UniProt P08069); assay: Inhibition of GST-IGF1R
Sequence (P08069 31-736 limits assumed): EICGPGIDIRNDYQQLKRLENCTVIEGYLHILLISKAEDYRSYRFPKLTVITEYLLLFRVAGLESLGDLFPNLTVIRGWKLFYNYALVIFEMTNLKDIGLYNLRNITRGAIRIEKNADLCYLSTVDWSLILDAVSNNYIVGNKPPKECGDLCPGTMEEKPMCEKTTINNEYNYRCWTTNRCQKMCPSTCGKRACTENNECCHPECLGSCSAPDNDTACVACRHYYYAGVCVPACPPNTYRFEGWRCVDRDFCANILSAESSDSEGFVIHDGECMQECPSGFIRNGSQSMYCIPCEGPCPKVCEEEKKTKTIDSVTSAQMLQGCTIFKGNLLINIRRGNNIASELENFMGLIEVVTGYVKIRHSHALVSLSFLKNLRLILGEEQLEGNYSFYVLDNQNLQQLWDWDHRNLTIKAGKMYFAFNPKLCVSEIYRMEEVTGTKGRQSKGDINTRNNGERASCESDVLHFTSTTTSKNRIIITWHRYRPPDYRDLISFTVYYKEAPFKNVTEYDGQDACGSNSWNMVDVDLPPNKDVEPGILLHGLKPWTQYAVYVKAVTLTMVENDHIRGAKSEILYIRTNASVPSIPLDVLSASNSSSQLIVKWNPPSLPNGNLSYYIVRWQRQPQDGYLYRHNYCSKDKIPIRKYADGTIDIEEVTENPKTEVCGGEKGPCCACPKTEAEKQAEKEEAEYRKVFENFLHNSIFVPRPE
Sequence (P08069 741-1367 limits assumed): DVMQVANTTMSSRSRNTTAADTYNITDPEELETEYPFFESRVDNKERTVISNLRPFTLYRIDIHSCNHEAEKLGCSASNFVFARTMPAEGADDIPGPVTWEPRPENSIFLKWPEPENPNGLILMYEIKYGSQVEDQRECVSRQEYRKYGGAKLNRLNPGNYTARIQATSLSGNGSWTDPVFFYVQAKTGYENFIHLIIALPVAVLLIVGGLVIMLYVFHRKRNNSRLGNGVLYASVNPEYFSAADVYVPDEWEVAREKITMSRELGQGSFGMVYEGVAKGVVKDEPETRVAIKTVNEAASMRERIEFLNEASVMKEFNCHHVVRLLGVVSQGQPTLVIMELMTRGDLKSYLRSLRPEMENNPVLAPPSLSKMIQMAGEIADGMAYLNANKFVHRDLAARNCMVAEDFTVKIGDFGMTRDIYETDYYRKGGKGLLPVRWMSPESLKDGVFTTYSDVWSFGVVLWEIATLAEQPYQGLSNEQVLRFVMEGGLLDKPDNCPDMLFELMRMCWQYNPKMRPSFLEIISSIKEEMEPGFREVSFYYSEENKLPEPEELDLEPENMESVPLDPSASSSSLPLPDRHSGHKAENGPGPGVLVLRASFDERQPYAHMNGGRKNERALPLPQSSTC

SMILES | IC50 [nM]
COc1cc2c(Nc3ccc(Sc4nccn4C)c(Cl)c3)c(C#N)cnc2cc1OCCCN1CCOCC1 | 66
COc1cc2c(Nc3ccc(Sc4ccccc4O)cc3)c(C#N)cnc2cc1OCCCN1CCOCC1 | 1090
COc1cc2c(Nc3ccc(Sc4ccccn4)c(Cl)c3)c(C#N)cnc2cc1OCCCN1CCOCC1 | > 10000
CCC1CCCCN1CCCOc1cc2ncc(C#N)c(Nc3ccc(Sc4nc(C)c(C)n4CC)c(Cl)c3)c2cc1OC (stereo not given) | 32
COc1cc2c(Nc3ccc(Sc4nccn4C)c(Cl)c3)c(C#N)cnc2cc1N1CCN(C)CC1 | 600
COc1cc2c(Nc3ccc(Sc4nccn4C)c(Cl)c3)c(C#N)cnc2cc1N(C)CCCN(C)C | 150
COc1cc2c(Nc3ccc(Sc4nccn4C)c(Cl)c3)c(C#N)cnc2cc1NCCCN(C)C | 151
CCOC(=O)NN1CCN(CCCOc2cc3ncc(C#N)c(Nc4ccc(Sc5nc(C)c(C)n5CC)c(Cl)c4)c3cc2OC)CC1 | 17
CCn1c(Sc2ccc(Nc3c(C#N)cnc4cc(OCCCN5CCOCC5)c(OC)cc34)cc2Cl)nc(C)c1C | 15
CCn1c(Sc2ccc(Nc3c(C#N)cnc4cc(NCCCN5CCN(C)CC5)c(OC)cc34)cc2Cl)nc(C)c1C | 16
COc1cc2c(Nc3ccc(Sc4nccn4C)cc3)c(C#N)cnc2cc1OCCCN1CCOCC1 | 1000
CCn1c(Sc2ccc(Nc3c(C#N)cnc4cc(NCCCc5ccccc5)c(OC)cc34)cc2Cl)nc(C)c1C | 13700
CCn1c(Sc2ccc(Nc3c(C#N)cnc4cc(NCCCN5CCOCC5)c(OC)cc34)cc2Br)nc(C)c1C | 20
CCNC(=O)N1CCN(CCCOc2cc3ncc(C#N)c(Nc4ccc(Sc5nc(C)c(C)n5CC)c(Cl)c4)c3cc2OC)CC1 | 45
CCn1c(Sc2ccc(Nc3c(C#N)cnc4cc(OCCCNS(C)(=O)=O)c(OC)cc34)cc2Cl)nc(C)c1C | 31
CCn1c(Sc2ccc(Nc3c(C#N)cnc4cc(NCCCN(CCO)CCO)c(OC)cc34)cc2Cl)nc(C)c1C | 26
CCN1CCN(CCCOc2cc3ncc(C#N)c(Nc4ccc(Sc5nc(C)c(C)n5CC)c(Cl)c4)c3cc2OC)CC1 | 9
CCC(=O)C1CCN(CCCOc2cc3ncc(C#N)c(Nc4ccc(Sc5nc(C)c(C)n5CC)c(Cl)c4)c3cc2OC)CC1 | 135

test system: not listed separately; assay: Selectivity ratio of IC50 for GST-IR to IC50 for GST-IGF1R

SMILES | Ratio IC50
CCN1CCN(CCCOc2cc3ncc(C#N)c(Nc4ccc(Sc5nc(C)c(C)n5CC)c(Cl)c4)c3cc2OC)CC1 | 0.17
